# ChEMBL document CHEMBL1125888, “Inhibitors of cholesterol biosynthesis. 3. Tetrahydro-4-hydroxy-6-[2-(1H-pyrrol-1-yl)ethyl]-2H-pyran-2-one inhibitors of HMG-CoA reductase. 2. Effects of introducing substituents at positions three and four of the pyrrole nucleus” (J Med Chem, 1991)
# What was measured:
# [1] = molecular target: T1, 3-hydroxy-3-methylglutaryl-coenzyme A reductase (Rattus norvegicus) (UniProt P51639); experiment: Relative potency against HMG-CoA reductase activity in partially purified rat liver; assay type: functional
# T1 sequence (whole entry): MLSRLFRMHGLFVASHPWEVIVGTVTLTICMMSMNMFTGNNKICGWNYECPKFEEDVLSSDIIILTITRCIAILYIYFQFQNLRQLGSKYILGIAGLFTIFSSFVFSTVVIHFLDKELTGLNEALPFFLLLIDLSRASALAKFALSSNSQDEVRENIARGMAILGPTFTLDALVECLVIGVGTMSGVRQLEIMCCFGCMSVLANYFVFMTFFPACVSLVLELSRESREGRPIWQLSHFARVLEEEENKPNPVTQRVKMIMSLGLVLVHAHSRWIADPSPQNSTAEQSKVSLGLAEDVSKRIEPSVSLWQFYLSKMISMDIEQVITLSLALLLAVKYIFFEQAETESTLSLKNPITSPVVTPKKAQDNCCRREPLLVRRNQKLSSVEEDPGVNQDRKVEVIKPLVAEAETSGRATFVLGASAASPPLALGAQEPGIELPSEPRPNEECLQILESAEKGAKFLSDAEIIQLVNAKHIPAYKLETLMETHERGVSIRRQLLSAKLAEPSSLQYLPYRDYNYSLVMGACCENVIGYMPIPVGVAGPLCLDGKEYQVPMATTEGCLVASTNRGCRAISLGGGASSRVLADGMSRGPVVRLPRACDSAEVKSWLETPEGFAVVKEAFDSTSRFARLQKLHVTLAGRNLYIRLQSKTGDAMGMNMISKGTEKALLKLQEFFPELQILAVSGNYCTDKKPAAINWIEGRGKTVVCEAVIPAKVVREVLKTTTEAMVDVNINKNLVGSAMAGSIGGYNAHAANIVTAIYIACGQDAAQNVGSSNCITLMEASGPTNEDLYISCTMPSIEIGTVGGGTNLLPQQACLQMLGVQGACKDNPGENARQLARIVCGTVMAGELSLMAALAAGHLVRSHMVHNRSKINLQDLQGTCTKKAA
# [2] = molecular target: T2, 3-hydroxy-3-methylglutaryl-coenzyme A reductase (Rattus norvegicus, UniProt P51639); experiment: Inhibition of HMG-CoA reductase activity in partially purified rat liver
# T2 sequence (P51639 whole entry): T1 sequence (whole entry)
Compound,Relative potency [1],IC50 [2] [µM]
CC(C)c1c(C(=O)Nc2ccccc2)c(-c2ccccc2)c(-c2ccc(F)cc2)n1CC[C@@H]1C[C@@H](O)CC(=O)O1 (racemic),81.4,–
CCOC(=O)c1c(-c2ccc(C#N)cc2)c(-c2ccc(F)cc2)n(CC[C@@H]2C[C@@H](O)CC(=O)O2)c1C(C)C,16.2,0.28
CC(C)c1c(C(=O)Nc2ccccc2)c(-c2ccccc2)c(-c2ccc(F)cc2)n1CC[C@@H]1C[C@@H](O)CC(=O)O1 (stereo in doubt; (+)-33),500,–
CC(C)c1c(C(=O)Nc2ccccc2)c(-c2ccccc2)c(-c2ccc(F)cc2)n1CC[C@@H]1C[C@@H](O)CC(=O)O1 (stereo in doubt; (-)-33),13.9,–
CC(C)c1c(C(=O)OCc2ccccc2)c(-c2ccccc2)c(-c2ccc(F)cc2)n1CC[C@@H]1C[C@@H](O)CC(=O)O1,24,0.04
CCOC(=O)c1c(-c2ccccc2)c(-c2ccccc2)n(CC[C@@H]2C[C@@H](O)CC(=O)O2)c1CC,6.3,0.89
CC(C)c1c(-c2ccccc2)cc(-c2ccc(F)cc2)n1CC[C@@H]1C[C@@H](O)CC(=O)O1,36.3,0.12
CC(C)c1c(C(=O)Nc2ccccc2)c(-c2ccccc2)c(-c2ccc(F)cc2)n1CC[C@@H]1C[C@@H](O)CC(=O)O1 (stereo in doubt; (+)-33) [ATORVASTATIN LACTONE],–,0.007
CC[C@H](C)C(=O)O[C@H]1CCC=C2C=C[C@H](C)[C@H](CC[C@@H]3C[C@@H](O)CC(=O)O3)[C@H]21 [MEVASTATIN],100,0.03
CCOC(=O)c1c(-c2ccccc2)c(-c2ccccc2)n(CC[C@@H]2C[C@@H](O)CC(=O)O2)c1C(C)C,23.5,0.17
CCOC(=O)c1c(C(=O)OCC)c(C(C)C)n(CC[C@@H]2C[C@@H](O)CC(=O)O2)c1-c1ccc(F)cc1,2.8,0.35
CCOC(=O)c1c(-c2ccccc2)c(-c2ccccc2)n(CC[C@@H]2C[C@@H](O)CC(=O)O2)c1C,0.6,4
CC(C)c1c(C(=O)Nc2ccccc2)c(-c2ccccc2)c(-c2ccc(F)cc2)n1CC[C@@H]1C[C@@H](O)CC(=O)O1 (racemic) [ATORVASTATIN LACTONE],–,0.025
CCOC(=O)c1c(-c2ccccc2)c(-c2ccc(F)cc2)n(CC[C@@H]2C[C@@H](O)CC(=O)O2)c1C(C)C,35.5,0.2
CCOC(=O)c1c(-c2ccccc2)c(C(C)C)n(CC[C@@H]2C[C@@H](O)CC(=O)O2)c1-c1ccc(F)cc1,100,0.05
CC(C)c1c(C(=O)Nc2ccccc2)c(-c2ccccc2)c(-c2ccc(F)cc2)n1CC[C@@H]1C[C@@H](O)CC(=O)O1 (stereo in doubt; (-)-33) [ATORVASTATIN LACTONE],–,0.44

# Now from value to molecule:
Relative potency [1],IC50 [2] [µM],Compound
78.6,0.028,CC(C)c1c(Cl)c(Cl)c(-c2ccc(F)cc2)n1CC[C@@H]1C[C@@H](O)CC(=O)O1
78.6,0.028,CC(C)c1c(Br)c(Br)c(-c2ccc(F)cc2)n1CC[C@@H]1C[C@@H](O)CC(=O)O1
10.9,–,CC(C)c1ccc(-c2ccc(F)cc2)n1CC[C@@H]1C[C@@H](O)CC(=O)O1
2.1,0.31,CC(C)c1cc(-c2ccncc2)c(-c2ccc(F)cc2)n1CC[C@@H]1C[C@@H](O)CC(=O)O1
16,0.14,Cc1c(C)c(C(C)C)n(CC[C@@H]2C[C@@H](O)CC(=O)O2)c1-c1ccc(F)cc1
12.5,0.347,CC(C)c1cc(-c2ccccc2)c(-c2ccc(F)cc2)n1CC[C@@H]1C[C@@H](O)CC(=O)O1
8.8,0.8,CC(C)c1cc(C(=O)C(F)(F)F)c(-c2ccc(F)cc2)n1CC[C@@H]1C[C@@H](O)CC(=O)O1
9.4,0.071,CC(C)c1cc(-c2cccnc2)c(-c2ccc(F)cc2)n1CC[C@@H]1C[C@@H](O)CC(=O)O1
14.3,0.18,COC(=O)c1c(C(=O)OC)c(C(C)C)n(CC[C@@H]2C[C@@H](O)CC(=O)O2)c1-c1ccc(F)cc1
76,0.046,CC(C)c1cc(-c2ccccn2)c(-c2ccc(F)cc2)n1CC[C@@H]1C[C@@H](O)CC(=O)O1
